Assay results from PMC10686834, “Targeting myeloid chemotaxis to reverse prostate cancer therapy resistance” (Nature, 2023).

Test system: patients with ARSI-resistant mCRPC
Assay: Phase 1 trial of AZD5069 plus enzalutamide: safety and tolerability (DLTs, treatment-emergent adverse events, NCI-CTCAE v.4.0)
Type: in vivo
Description: The primary trial objective was to evaluate the safety and tolerability of the combination. Key secondary objectives were to evaluate pharmacokinetic–pharmacodynamic parameters and antitumour activity.
Eligible patients were consenting patients aged ≥18 years, who had mCRPC with histologically confirmed prostate adenocarcinoma histology, documented cancer progression at the time of trial entry by Response Evaluation Criteria in Solid Tumors (v.1.1) and/or Prostate Cancer Working Group 2 criteria, and PSA of ≥10 ng ml^−1 at screening.
The dose-escalation phase used a rule-based 3 + 3 design, with an initial three patients enrolled per dose level. If none of the first three patients experienced a DLT, dose escalation proceeded to the next dose level. […] If fewer than two of six patients at any dose level experienced a DLT, dose escalation continued to the next level. If at least two out of up to six patients experienced a DLT, dose escalation stopped and this dose level was defined as the maximum administered dose. Once this maximum administered dose was defined, the maximum tolerated dose (MTD) was confirmed at the dose level below the maximum administered dose. At least six evaluable patients were required to establish the MTD at a specific dose level. […] Intra-patient dose escalation was not permitted. Start of dosing between the first and second patient enrolled to each dose level was staggered by 1 week. Once the MTD was determined in the phase 1 study, the recommended phase 2 dose was determined on the basis of available data, including but not limited to safety and response.
DLTs were defined as described in the study protocol. […] Prophylaxis with growth factor support or antipyretics were not permitted. Investigators determined whether an adverse event was related to the study drugs. If a patient experienced clinically significant and/or unacceptable toxicity, including a DLT, not attributable to the disease or disease-related processes, dosing was interrupted or the dose was reduced and supportive therapy was administered as required.

In the case of `C[C@@H](Oc1cc(NS(=O)(=O)N2CCC2)nc(SCc2cccc(F)c2F)n1)[C@@H](O)CO` [AZD5069], the “TEAE Hypophosphataemia, All G” value (AZD5069 80 mg BD (n=4)) is reported as 1 (25) n (%), the “TEAE Hypophosphataemia, G≥3” value (AZD5069 80 mg BD (n=4)) is reported as 0 (0) n (%) and the “TEAE Nausea, All G” value (AZD5069 80 mg BD (n=4)) is reported as 0 (0) n (%). The “TEAE Nausea, G≥3” value (AZD5069 80 mg BD (n=4)) was 0 (0) n (%), the “TEAE Neutrophil decreased, All G” value (AZD5069 80 mg BD (n=4)) was 3 (75) n (%) and the “TEAE Neutrophil decreased, G≥3” value (AZD5069 80 mg BD (n=4)) was 1 (25) n (%). The “TEAE Oedema genital, All G” value (AZD5069 80 mg BD (n=4)) was 0 (0) n (%), the “TEAE Oedema genital, G≥3” value (AZD5069 80 mg BD (n=4)) was 0 (0) n (%) and the “TEAE Platelet decreased, All G” value (AZD5069 80 mg BD (n=4)) was 0 (0) n (%). The “TEAE Platelet decreased, G≥3” value (AZD5069 80 mg BD (n=4)) was 0 (0) n (%), the “TEAE Pruritus, All G” value (AZD5069 80 mg BD (n=4)) was 0 (0) n (%) and the “TEAE Pruritus, G≥3” value (AZD5069 80 mg BD (n=4)) was 0 (0) n (%). The “TEAE Skin infection, All G” value (AZD5069 80 mg BD (n=4)) was 1 (25) n (%), the “TEAE Skin infection, G≥3” value (AZD5069 80 mg BD (n=4)) was 0 (0) n (%) and the “TEAE Vomiting, All G” value (AZD5069 80 mg BD (n=4)) was 0 (0) n (%). The “TEAE Vomiting, G≥3” value (AZD5069 80 mg BD (n=4)) was 0 (0) n (%), the “TEAE White blood cell decreased, All G” value (AZD5069 80 mg BD (n=4)) was 0 (0) n (%) and the “TEAE White blood cell decreased, G≥3” value (AZD5069 80 mg BD (n=4)) was 0 (0) n (%). The “TEAE Anemia, All G” value (AZD5069 120 mg BD (n=3)) was 1 (33) n (%), the “TEAE Anemia, G≥3” value (AZD5069 120 mg BD (n=3)) was 0 (0) n (%) and the “TEAE Aphasia, All G” value (AZD5069 120 mg BD (n=3)) was 0 (0) n (%). The “TEAE Aphasia, G≥3” value (AZD5069 120 mg BD (n=3)) was 0 (0) n (%), the “TEAE Arthralgia, All G” value (AZD5069 120 mg BD (n=3)) was 0 (0) n (%) and the “TEAE Arthralgia, G≥3” value (AZD5069 120 mg BD (n=3)) was 0 (0) n (%). For the same compound, the “TEAE Aspartate aminotransferase increased, All G” value (AZD5069 120 mg BD (n=3)) was 0 (0) n (%), the “TEAE Aspartate aminotransferase increased, G≥3” value (AZD5069 120 mg BD (n=3)) was 0 (0) n (%) and the “TEAE Constipation, All G” value (AZD5069 120 mg BD (n=3)) was 1 (33) n (%). The “TEAE Constipation, G≥3” value (AZD5069 120 mg BD (n=3)) was 0 (0) n (%), the “TEAE Death, All G” value (AZD5069 120 mg BD (n=3)) was 0 (0) n (%) and the “TEAE Death, G≥3” value (AZD5069 120 mg BD (n=3)) was 0 (0) n (%). The “TEAE Decreased appetite, All G” value (AZD5069 120 mg BD (n=3)) was 0 (0) n (%), the “TEAE Decreased appetite, G≥3” value (AZD5069 120 mg BD (n=3)) was 0 (0) n (%) and the “TEAE Diarrhoea, All G” value (AZD5069 120 mg BD (n=3)) was 0 (0) n (%). The “TEAE Diarrhoea, G≥3” value (AZD5069 120 mg BD (n=3)) was 0 (0) n (%), the “TEAE Dry skin, All G” value (AZD5069 120 mg BD (n=3)) was 0 (0) n (%) and the “TEAE Dry skin, G≥3” value (AZD5069 120 mg BD (n=3)) was 0 (0) n (%). The “TEAE Fatigue, All G” value (AZD5069 120 mg BD (n=3)) was 1 (33) n (%), the “TEAE Fatigue, G≥3” value (AZD5069 120 mg BD (n=3)) was 0 (0) n (%) and the “TEAE Headache, All G” value (AZD5069 120 mg BD (n=3)) was 0 (0) n (%). For the same compound, the “TEAE Headache, G≥3” value (AZD5069 120 mg BD (n=3)) was 0 (0) n (%), the “TEAE Hypophosphataemia, All G” value (AZD5069 120 mg BD (n=3)) was 0 (0) n (%) and the “TEAE Hypophosphataemia, G≥3” value (AZD5069 120 mg BD (n=3)) was 0 (0) n (%). For the same compound, the “TEAE Nausea, All G” value (AZD5069 120 mg BD (n=3)) was 1 (33) n (%), the “TEAE Nausea, G≥3” value (AZD5069 120 mg BD (n=3)) was 0 (0) n (%) and the “TEAE Neutrophil decreased, All G” value (AZD5069 120 mg BD (n=3)) was 3 (100) n (%). For the same compound, the “TEAE Neutrophil decreased, G≥3” value (AZD5069 120 mg BD (n=3)) was 2 (67) n (%), the “TEAE Oedema genital, All G” value (AZD5069 120 mg BD (n=3)) was 0 (0) n (%) and the “TEAE Oedema genital, G≥3” value (AZD5069 120 mg BD (n=3)) was 0 (0) n (%). The “TEAE Platelet decreased, All G” value (AZD5069 120 mg BD (n=3)) was 1 (33) n (%), the “TEAE Platelet decreased, G≥3” value (AZD5069 120 mg BD (n=3)) was 0 (0) n (%) and the “TEAE Pruritus, All G” value (AZD5069 120 mg BD (n=3)) was 0 (0) n (%). The “TEAE Pruritus, G≥3” value (AZD5069 120 mg BD (n=3)) was 0 (0) n (%), the “TEAE Skin infection, All G” value (AZD5069 120 mg BD (n=3)) was 0 (0) n (%) and the “TEAE Skin infection, G≥3” value (AZD5069 120 mg BD (n=3)) was 0 (0) n (%). For the same compound, the “TEAE Vomiting, All G” value (AZD5069 120 mg BD (n=3)) was 0 (0) n (%), the “TEAE Vomiting, G≥3” value (AZD5069 120 mg BD (n=3)) was 0 (0) n (%) and the “TEAE White blood cell decreased, All G” value (AZD5069 120 mg BD (n=3)) was 0 (0) n (%). For the same compound, the “TEAE White blood cell decreased, G≥3” value (AZD5069 120 mg BD (n=3)) was 0 (0) n (%), the “TEAE Anemia, All G” value (AZD5069 160 mg BD (n=6)) was 2 (33) n (%) and the “TEAE Anemia, G≥3” value (AZD5069 160 mg BD (n=6)) was 1 (17) n (%). For the same compound, the “TEAE Aphasia, All G” value (AZD5069 160 mg BD (n=6)) was 0 (0) n (%), the “TEAE Aphasia, G≥3” value (AZD5069 160 mg BD (n=6)) was 0 (0) n (%) and the “TEAE Arthralgia, All G” value (AZD5069 160 mg BD (n=6)) was 0 (0) n (%).
